From paper PMC8151276, “An Integrated Approach toward NanoBRET Tracers for Analysis of GPCR Ligand Engagement” (Molecules, 2021) come the findings set out here.

What all share (assay type): binding
For assay [1], the target named is T1, GALR2 (Homo sapiens, UniProt O43603).
T1 construct: purchased Promega (in-house HiBiT-GPCR construct library, NanoBRET)
T1 sequence (O43603 1-387): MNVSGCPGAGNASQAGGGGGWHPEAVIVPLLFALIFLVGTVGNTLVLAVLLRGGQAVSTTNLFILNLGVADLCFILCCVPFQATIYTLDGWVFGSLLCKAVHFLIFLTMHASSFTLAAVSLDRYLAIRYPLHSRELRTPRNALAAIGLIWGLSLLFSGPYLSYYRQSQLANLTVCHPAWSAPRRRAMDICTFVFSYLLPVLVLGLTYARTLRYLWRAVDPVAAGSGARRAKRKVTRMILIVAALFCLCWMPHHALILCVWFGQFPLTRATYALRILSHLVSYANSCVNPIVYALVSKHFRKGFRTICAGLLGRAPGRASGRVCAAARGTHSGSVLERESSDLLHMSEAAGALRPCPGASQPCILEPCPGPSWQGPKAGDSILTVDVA
As to the kind of experiment: NanoBRET screen HiBiT-GALR2 in HEK293. The procedure: (§1) Each tracer candidate was screened across the entire library of HiBiT-GPCR constructs using NanoBRET as the detection modality. As depicted in Figure 4A, the specificity of interactions was evaluated through decrease in BRET due to competitive displacement of a bound tracer by excess parental compound. Each tracer was analyzed for binding to each HiBiT-GPCR fusion in the absence and in the presence of competing parental compound. Briefly, HEK293 cells were transfected with HiBiT-GPCR constructs diluted into promoterless DNA to reduce expression and maximize translocation to the cell surface. Each tracer candidate was then screened at concentrations of 1 μM and 0.1 μM across cells expressing these fusions. Cells were treated for 1.5 h with tracer either alone or in the presence of 20 μM competing parental compound (i.e., control). BRET was measured upon addition of purified LgBiT and subsequent complementation with HiBiT genetically fused to a GPCR. The specificity of interactions was assessed through a decrease in BRET signal due to competitive displacement of the bound tracer. To further gauge the robustness of these interactions, the fold response over the control (i.e., BRETtracer/BRETcontrol) was calculated. We chose a 1.5-fold response, which translates to ≥7-fold signal over noise as the minimal threshold required to score an interaction as positive. […]. Below we highlight the screening results obtained for our exemplary fluorescent tracers based on Clozapine, Amitriptyline and AZD1283.
(§2) HiBiT-GPCR DNA constructs were diluted in 10 mM Tris pH 8 to a final concentration of 0.01 μg/μL, arrayed in 96-well plates and stored at −20 °C. For transfection, HEK293 cells were suspended in Opti-MEM (without phenol red) supplemented with 2% fetal bovine serum (Seradigm) and 100 units/mL penicillin–streptomycin (Gibco) at a final concentration of 220,000 cells/mL and dispensed into white 96-well plates at 90 μL/well. Subsequent transfections and screens were carried using an Agilent Bravo Automated Liquid Handling Platform. First, the 96-well HiBiT DNA arrays were diluted 25-fold in Opti-MEM (without serum or phenol red) to a final concentration of 0.0004 μg/μL and 20 μL of the diluted DNAs were transferred into new 96-well plates. Next, promoterless carrier DNA (1 μg/μL) was diluted 25-fold (0.04 μg/μL) and then dispensed into the diluted arrays at 20 μL/well. Following brief mixing, Viafect transfection reagent (Promega) diluted 16-fold into Opti-MEM was dispensed into the plates at 40 μL/well. After mixing by pipetting, plates were incubated for 10 min on the pipetting station deck. The DNA-transfection reagent complexes were then added to plates containing cells. To facilitate the screen, 10 μL of DNA-transfection reagent complexes were added in duplicates to the top 4 and bottom 4 rows, resulting in two identical 48-well arrays per plate. Plates with transfected cells were incubated for 18–20 h at 37 °C/5% CO2. A screen of each tracer across the entire library using two different concentrations requires duplicate plates of transfected cells. Depending on the number of tracers being screened, transfections can be scaled up using the same ratios. The next day, for each tracer, four 20× screening solutions in tracer dilution buffer (Promega) were prepared: two duplicates at final concentration of 20 μM and two duplicates at a final concentration of 2 μM. A competing unmodified compound was added to one of each duplicate at a final concentration of 400 μM. The four resulting solutions were diluted 4-fold in Opti-MEM without serum or phenol red to generate 5× solutions (5 µM and 0.5 µM tracer +/− 100 μM competing compound). To screen the library, a BioTek MultiFlo FX liquid dispenser was used to dispense 22.5 µL of tracer solution to the top 4 rows and 22.5 µL tracer + competing compound solution to the 4 bottom rows. Plates were briefly mixed on an orbital shaker and incubated for 1.5 h at room temperature. […]
A general note: In BRET a luciferase serves as donor, and the signal depends on an acceptor being close.

Assay [2] concerns the target T2, FZD1 (Homo sapiens, UniProt Q9UP38).
T2 construct: purchased Promega (in-house HiBiT-GPCR construct library, NanoBRET)
As to the kind of experiment: NanoBRET screen HiBiT-FZD1 in HEK293. The procedure: as §1, §2

The target of assay [3] is T3, NTSR1 (Homo sapiens, UniProt P30989).
T3 construct: purchased Promega (in-house HiBiT-GPCR construct library, NanoBRET)
T3 sequence (P30989 whole entry): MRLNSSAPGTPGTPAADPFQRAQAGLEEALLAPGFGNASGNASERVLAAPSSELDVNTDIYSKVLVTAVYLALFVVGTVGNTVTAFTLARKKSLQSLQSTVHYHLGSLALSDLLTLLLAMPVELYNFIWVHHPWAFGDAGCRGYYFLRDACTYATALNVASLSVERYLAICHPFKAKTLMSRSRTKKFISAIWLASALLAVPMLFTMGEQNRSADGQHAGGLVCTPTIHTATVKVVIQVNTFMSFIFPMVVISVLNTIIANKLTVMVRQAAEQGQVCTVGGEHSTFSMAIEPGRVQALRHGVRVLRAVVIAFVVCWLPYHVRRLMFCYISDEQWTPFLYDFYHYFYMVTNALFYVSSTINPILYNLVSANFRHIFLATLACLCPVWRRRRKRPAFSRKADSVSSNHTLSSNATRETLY
As to the kind of experiment: NanoBRET screen HiBiT-NTSR1 in HEK293. On the procedure: as §1, §2

Assay [4] has as its target T4, LGR4 (Homo sapiens, UniProt Q9BXB1).
T4 construct: purchased Promega (in-house HiBiT-GPCR construct library, NanoBRET)
T4 sequence (Q9BXB1 25-951): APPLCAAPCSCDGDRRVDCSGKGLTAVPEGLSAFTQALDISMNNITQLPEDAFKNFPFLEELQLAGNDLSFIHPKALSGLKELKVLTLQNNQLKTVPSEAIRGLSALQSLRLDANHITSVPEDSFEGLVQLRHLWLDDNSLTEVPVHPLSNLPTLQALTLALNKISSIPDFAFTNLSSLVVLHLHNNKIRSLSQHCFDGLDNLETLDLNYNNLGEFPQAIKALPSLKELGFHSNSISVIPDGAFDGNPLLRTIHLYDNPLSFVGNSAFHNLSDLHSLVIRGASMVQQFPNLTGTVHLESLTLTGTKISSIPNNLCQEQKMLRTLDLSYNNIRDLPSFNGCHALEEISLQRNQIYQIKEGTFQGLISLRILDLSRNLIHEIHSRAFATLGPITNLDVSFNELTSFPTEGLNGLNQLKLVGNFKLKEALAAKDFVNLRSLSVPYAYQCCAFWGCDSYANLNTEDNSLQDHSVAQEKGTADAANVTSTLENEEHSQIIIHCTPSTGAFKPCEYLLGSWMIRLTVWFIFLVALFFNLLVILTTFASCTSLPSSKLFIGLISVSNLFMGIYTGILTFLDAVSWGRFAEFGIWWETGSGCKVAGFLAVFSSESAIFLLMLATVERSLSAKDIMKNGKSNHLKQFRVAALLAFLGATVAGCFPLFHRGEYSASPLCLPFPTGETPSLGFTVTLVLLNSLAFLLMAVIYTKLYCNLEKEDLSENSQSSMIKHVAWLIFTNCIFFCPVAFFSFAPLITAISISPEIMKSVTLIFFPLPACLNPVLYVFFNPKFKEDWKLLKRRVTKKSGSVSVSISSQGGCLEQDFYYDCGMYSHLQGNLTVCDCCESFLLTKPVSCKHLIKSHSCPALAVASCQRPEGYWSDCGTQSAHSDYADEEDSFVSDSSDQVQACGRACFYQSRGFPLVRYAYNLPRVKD
As to the kind of experiment: NanoBRET screen HiBiT-LGR4 in HEK293. The procedure: as §1, §2

The mark [5] stands for this setting: tracer at 0.1μM, listed as amitriptyline-b-2-NB590.
Setting [6] is: tracer at 1μM, listed as amitriptyline-b-2-NB590.

T2 sequence (Q9UP38 70-647): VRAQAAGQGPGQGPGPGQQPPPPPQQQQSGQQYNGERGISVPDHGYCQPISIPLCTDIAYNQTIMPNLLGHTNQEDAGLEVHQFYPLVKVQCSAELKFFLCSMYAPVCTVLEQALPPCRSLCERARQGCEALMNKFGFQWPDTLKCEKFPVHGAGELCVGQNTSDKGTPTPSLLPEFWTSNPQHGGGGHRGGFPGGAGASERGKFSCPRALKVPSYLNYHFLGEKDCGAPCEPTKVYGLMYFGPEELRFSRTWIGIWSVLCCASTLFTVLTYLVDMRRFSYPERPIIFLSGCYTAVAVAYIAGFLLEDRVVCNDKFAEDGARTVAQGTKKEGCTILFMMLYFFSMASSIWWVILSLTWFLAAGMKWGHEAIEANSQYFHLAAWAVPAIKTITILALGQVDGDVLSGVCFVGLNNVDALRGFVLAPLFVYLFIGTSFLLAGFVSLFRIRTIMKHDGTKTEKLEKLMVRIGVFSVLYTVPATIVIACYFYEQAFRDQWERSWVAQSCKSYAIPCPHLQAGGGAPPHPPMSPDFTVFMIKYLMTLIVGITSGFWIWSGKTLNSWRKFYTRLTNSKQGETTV

`Cc1cc2c(s1)Nc1ccccc1N=C2N1CCN(CCCNC(=O)CCOCCOCCOCCOCCNC(=O)CCc2ccc3n2[B-](F)(F)[N+]2=C(c4ccc[nH]4)C=CC2=C3)CC1` [Olanzapine-a-2-NB590]: the “NanoBRET Fold Response” value stood at 0.96 in assay [1] (GALR2, tracer 0.1μM); 1.07 in assay [1] (GALR2, tracer 1μM); 0.95 in assay [2] (FZD1, tracer 0.1μM); 1.04 in assay [2] (FZD1, tracer 1μM); 1.01 in assay [3] (NTSR1, tracer 0.1μM); 1.02 in assay [3] (NTSR1, tracer 1μM). Further, the “NanoBRET Fold Response” value amounted to 0.98 in assay [4] (LGR4, tracer 0.1μM) and 1.30 in assay [4] (LGR4, tracer 1μM).
Consider `N#CN=C(NCCCOc1cccc(CN2CCCCC2)c1)NCCNC(=O)CCOCCOCCOCCOCCNC(=O)CCc1ccc2n1[B-](F)(F)[N+]1=C(c3ccc[nH]3)C=CC1=C2` [Aminopotentidine-2-NB590], for which the “NanoBRET Fold Response” value is recorded as 0.94 in assay [1] (GALR2, tracer 0.1μM); 0.99 in assay [1] (GALR2, tracer 1μM); 1.07 in assay [2] (FZD1, tracer 0.1μM); 1.12 in assay [2] (FZD1, tracer 1μM); 1.02 in assay [3] (NTSR1, tracer 0.1μM); 1.03 in assay [3] (NTSR1, tracer 1μM). The “NanoBRET Fold Response” value in assay [4] (LGR4, tracer 0.1μM) turned out to be 1.01; in assay [4] (LGR4, tracer 1μM), 1.02.
Take `Cc1nc2n(c(=O)c1CCN1CCC(c3noc4cc(F)ccc34)CC1)CCCC2OC(=O)NCCOCCOCCOCCOCCNC(=O)CCc1ccc2n1[B-](F)(F)[N+]1=C(c3ccc[nH]3)C=CC1=C2` (centres unmarked) [Risperidone-2-NB590]: the “NanoBRET Fold Response” value is recorded as 1.03 in assay [1] (GALR2, tracer 0.1μM); 0.97 in assay [1] (GALR2, tracer 1μM); 1.02 in assay [2] (FZD1, tracer 0.1μM); 1.00 in assay [2] (FZD1, tracer 1μM); 1.00 in assay [3] (NTSR1, tracer 0.1μM); 0.98 in assay [3] (NTSR1, tracer 1μM). Moreover, the “NanoBRET Fold Response” value in assay [4] (LGR4, tracer 0.1μM) came to 0.93; in assay [4] (LGR4, tracer 1μM), 0.98.
Turning to `CN(C)CCC=C1c2ccccc2CCc2ccc(C(=O)NCCNC(=O)CCOCCOCCOCCOCCNC(=O)CCc3ccc4n3[B-](F)(F)[N+]3=C(c5ccc[nH]5)C=CC3=C4)cc21` [Amitriptyline-b-2-NB590], the “NanoBRET Fold Response” value in assay [1] (setting [5]) was 1.10; in assay [1] (setting [6]) it was 1.11; in assay [2] (setting [5]), 0.97; in assay [2] (setting [6]), 1.14; in assay [3] (setting [5]) it was 0.97; in assay [3] (setting [6]) it was 1.02. The figures for the “NanoBRET Fold Response” value in assay [4] (tracer at 0.1μM) and in assay [4] (tracer at 1μM) were 1.00 and 0.98, respectively.
